≈ marks a conversion by molar mass, not a printed value.
Tests used:
[1] = test system: K. pneumoniae DSM-30104; test: MIC determination, larger panel; assay type: cell-based; conditions: Klebsiella pneumoniae, DSM30104, read-out: MIC K. pneumoniae
[2] = test system: P. aeruginosa ESBL 1 DSM-24600; test: MIC determination, larger panel; assay type: cell-based; conditions: Pseudomonas aeruginosa, DSM24600, read-out: MIC P. aeruginosa ESBL 1
[3] = test system: A. baumannii DSM-30008; test: MIC determination, larger panel; assay type: cell-based; conditions: Acinetobacter baumannii, DSM30008, read-out: MIC A. baumannii, DSM-30008
[4] = In vivo tolerance study; parameters: species or system male CD-1 mice
[5] = test system: P. aeruginosa ESBL 2 DSM-46316; test: MIC determination, larger panel; assay type: cell-based; conditions: Pseudomonas aeruginosa, DSM46316, read-out: MIC P. aeruginosa ESBL 2
[6] = test system: E. coli WT-3; test: MIC determination, larger panel; assay type: cell-based; conditions: Escherichia coli, WT3, read-out: MIC E. coli WT-3
[7] = test system: E. coli ATCC25922; test: Neutropenic murine thigh infection model, i.v. administration; assay type: in vivo, male ICR mice
[8] = test system: S. marcescens DSM-30121; test: MIC determination, larger panel; assay type: cell-based; conditions: Serratia marcescens, DSM30121, read-out: MIC S. marcescens
[9] = Single dosing pharmacokinetic study; assay type: in vivo, male CD-1 outbred mice; conditions: 5 mg/kg, plasma
[10] = test system: E. cloacae DSM-30054; test: MIC determination, larger panel; assay type: cell-based; conditions: Enterobacter cloacae, DSM30054, read-out: MIC E. cloacae
[11] = test system: E. coli strain ATCC25922; test: Neutropenic thigh infection model, s.c. and i.v. administration; assay type: in vivo, neutropenic CD-1 mice; conditions: 24 h after infection
[12] = as above; assay type: in vivo, neutropenic CD-1 mice; conditions: male, CD-1, mouse, muscle, other: intravenous then subcutaneous
[13] = test system: E. aerogenes DSM-30053; test: MIC determination, larger panel; assay type: cell-based, Enterobacter aerogenes; conditions: Klebsiella aerogenes, DSM30053, read-out: MIC E. aerogenes
[14] = test system: E. faecalis ATCC-29212; test: MIC determination, larger panel; assay type: cell-based; conditions: Enterococcus faecalis, ATCC29212, read-out: MIC E. faecalis
[15] = test system: P. mirabilis DSM-4479; test: MIC determination, larger panel; assay type: cell-based; conditions: Proteus mirabilis, DSM4479, read-out: MIC P. mirabilis

**Q.** For `CC(C)Oc1c(NC(=O)c2ccc(NC(=O)[C@H](CC(N)=O)NC(=O)c3ccc(NC(=O)c4ccc(C#N)cc4)cc3)cc2)ccc(C(=O)Nc2ccc(C(=O)O)cc2)c1O` [Compound 22], which MIC [1] is on record?
**A.** 0.5 µg/mL (≈ 0.616 µM)

**Q.** And the MIC [2]?
**A.** 4 µg/mL (≈ 4.93 µM)

**Q.** What about the MIC [3] of the same compound?
**A.** 1 µg/mL (≈ 1.23 µM)

**Q.** And the adverse effects ([4]; 5 mg kg^−1 i.v. four times every 6 hours (20 mg kg^−1 per day))?
**A.** no adverse effect

**Q.** And the adverse effects ([4]; 10 mg kg^−1 i.v. four times every 6 hours (40 mg kg^−1 per day))?
**A.** no adverse effect

**Q.** And the adverse effects ([4]; 20 mg kg^−1 i.v. four times every 6 hours (80 mg kg^−1 per day))?
**A.** one animal in the group treated at 20 mg kg^−1 showed adverse effects

**Q.** What about the MIC [5] of the same compound?
**A.** 4 µg/mL (≈ 4.93 µM)

**Q.** What about the MIC [6] of the same compound?
**A.** 0.25 µg/mL (≈ 0.308 µM)

**Q.** And the “Log10 variation from vehicle control” value ([7]; 20mg/kg/day i.v.)?
**A.** −3.97 CFU/g

**Q.** What about the “Log10 variation from vehicle control” value ([7]; 40mg/kg/day i.v.) of the same compound?
**A.** −5.32 CFU/g

**Q.** And the “Log10 variation from vehicle control” value ([7]; 50mg/kg/day i.v.)?
**A.** −4.89 CFU/g

**Q.** What about the MIC [8] of the same compound?
**A.** > 64 µg/mL

**Q.** And the “V/F (volume of distribution)” value ([9]; i.v.)?
**A.** 3.5 L/kg

**Q.** And the AUC ([9]; male, CD-1, mouse, iv, area under the curve (AUC), 5 mg kg^−1, plasma)?
**A.** ~2000 ng·h/mL

**Q.** And the MIC [10]?
**A.** 0.25 µg/mL (≈ 0.308 µM)

**Q.** What about the “reduction of the bacterial load in lung” value [11] of the same compound?
**A.** 3 log units

**Q.** And the “bacterial load in kidney” value ([11]; all dosing groups, compared to vehicle-treated animals)?
**A.** complete bacterial clearance

**Q.** What about the concentration at 24 h [12] of the same compound?
**A.** ~100 ng/mL

**Q.** And the MIC [13]?
**A.** 0.06 µg/mL (≈ 0.0739 µM)

**Q.** And the MIC [14]?
**A.** 0.5 µg/mL (≈ 0.616 µM)

**Q.** What about the MIC [15] of the same compound?
**A.** > 64 µg/mL

Reference: article PMC8148378 (Chemical Science, 2019)
